Laboratory results from patent US20240158348A1, “HERBICIDAL CYCLIC AMIDES N-SUBSTITUTED WITH A HALOALKYLSULFONYLANILIDE GROUP” (FMC Corporation, priority 2021, published 2024).

Key:
Format in all cases: in vivo
[1] = test system: ragweed (common ragweed, Ambrosia artemisiifolia); assay: Test C preemergence, ragweed; details: 0 is no effect, 100 is complete control
Text: (§1) Seeds of plant species selected from blackgrass (Alopecurus myosuroides), corn (Zea mays), foxtail, giant (giant foxtail, Setaria faberi), goosegrass (Eleusine indica), kochia (Bassia scoparia), oat, wild (wild oat, Avena fatua), pigweed, palmer (palmer amaranth, Amaranthus palmeri), ragweed (common ragweed, Ambrosia artemisiifolia), ryegrass, Italian (Italian ryegrass, Lolium multiflorum), soybean (Glycine max) and wheat (Triticum aestivum) were planted into a blend of loam soil and sand and treated preemergence with a directed soil spray using test chemicals formulated in a non-phytotoxic solvent mixture which included a surfactant.
(§2) At the same time, plants selected from these crop and weed species and also galium (catchweed bedstraw, Galium aparine) and horseweed (Erigeron canadensis) were planted in pots containing the same blend of loam soil and sand and treated with postemergence applications of test chemicals formulated in the same manner. Plants ranged in height from 2 to 10 cm and were in the one- to two-leaf stage for the postemergence treatment. Treated plants and untreated controls were maintained in a greenhouse for 10 or 12 days, after which time all treated plants were compared to untreated controls and visually evaluated for injury. Plant response ratings, summarized in Table A, are based on a 0 to 100 scale where 0 is no effect and 100 is complete control. A dash (-) response means no test result.

[2] = test system: ryegrass, Italian (Italian ryegrass, Lolium multiflorum); assay: Test C preemergence, Italian ryegrass; details: 0 is no effect, 100 is complete control
Text: as §1, §2

[3] = test system: ryegrass, Italian (Italian ryegrass, Lolium multiflorum); assay: Test C postemergence, Italian ryegrass; details: visual injury, 0 to 100 scale (0 no effect, 100 complete control)
Text: as §1, §2

[4] = test system: wheat (Triticum aestivum); assay: Test C postemergence, wheat; details: visual injury, 0 to 100 scale (0 no effect, 100 complete control)
Text: as §1, §2

[5] = test system: galium (catchweed bedstraw, Galium aparine); assay: Test C postemergence, galium; details: for Galium plant response rating: visual injury, 0 to 100 scale (0 no effect, 100 complete control); for Plant response rating (0 to 100 scale), Galium: 0 is no effect, 100 is complete control
Text: as §1, §2

[6] = test system: barnyardgrass (Echinochloa crusgalli); assay: Test D flooded paddy test, barnyardgrass; design: key: 0 = no effect, 100 = complete control; details: 250 g ai/ha, Flood; applied to paddy water at 2-leaf stage; visual rating after 13 days; scale 0 (no effect) to 100 (complete control)
Protocol: (§3) Plant species in the flooded paddy test selected from barnyardgrass (Echinochloa crusgalli), ducksalad (Heteranthera limosa), rice (Oryza sativa), and sedge, umbrella (small-flower umbrella sedge, Cyperus difformis) were grown to the 2-leaf stage for testing. At time of treatment, test pots were flooded to 3 cm above the soil surface, treated by application of test compounds directly to the paddy water, and then maintained at that water depth for the duration of the test. Treated plants and controls were maintained in a greenhouse for 13 days, after which time all species were compared to controls and visually evaluated. Plant response ratings, summarized in Table B, are based on a scale of 0 to 100 where 0 is no effect and 100 is complete control. A dash (-) response means no test result.

[7] = test system: sedge, umbrella (small-flower umbrella sedge, Cyperus difformis); assay: Test D flooded paddy test, umbrella sedge; design: key: 0 = no effect, 100 = complete control; details: 250 g ai/ha, Flood; applied to paddy water at 2-leaf stage; visual rating after 13 days; scale 0 (no effect) to 100 (complete control)
Protocol: as §3

[8] = test system: horseweed (Erigeron canadensis); assay: Test C postemergence, horseweed; details: visual injury, 0 to 100 scale (0 no effect, 100 complete control)
Text: as §1, §2

| SMILES | Plant response rating (0 to 100 scale), Ragweed ([1]; 31 g ai/ha Preemergence) | Plant response rating (0 to 100 scale), Ragweed ([1]; 125 g ai/ha Preemergence) | Plant response rating (0 to 100 scale), Ryegrass, Italian ([2]; 31 g ai/ha Preemergence) | Plant response rating (0 to 100 scale), Ryegrass, Italian ([2]; 125 g ai/ha Preemergence) | Ryegrass, Italian plant response rating ([3]; 31 g ai/ha Postemergence) | Ryegrass, Italian plant response rating ([3]; 125 g ai/ha Postemergence) | Wheat plant response rating ([4]; 31 g ai/ha Postemergence) | Wheat plant response rating ([4]; 125 g ai/ha Postemergence) | Galium plant response rating ([5]; 31 g ai/ha Postemergence) | Plant response rating (0 to 100 scale), Galium ([5]; 125 g ai/ha Postemergence) | Plant response rating, Barnyardgrass [6] | Plant response rating, Sedge, Umbrella [7] | Horseweed plant response rating ([8]; 31 g ai/ha Postemergence) | Horseweed plant response rating ([8]; 125 g ai/ha Postemergence) | Galium plant response rating ([5]; 125 g ai/ha Postemergence) |
| --- | --- | --- | --- | --- | --- | --- | --- | --- | --- | --- | --- | --- | --- | --- | --- |
| Cc1c(NS(=O)(=O)C(F)(F)F)cc(N2CCC(OC3CCC3)C2=O)c(C)c1F (centres unmarked) [Compound 25] | 90 | 100 | 90 | 100 | 20 | 70 | 50 | 60 | 100 | 100 | 0 | 90 | – | – | – |
| Cc1cc(C)c(N(COC(=O)C(C)(C)C)S(=O)(=O)C(F)(F)F)cc1N1CCC(OCC2CC2(F)F)C1=O (centres unmarked) [Compound 54] | 0 | 60 | 0 | 90 | 60 | 70 | 30 | 70 | – | – | 45 | 98 | 70 | 90 | – |
| Cc1c(N2CCC(OC3CC3)C2=O)cc(N(C(=O)OCC(C)C)S(=O)(=O)C(F)(F)F)c(C)c1C (centres unmarked) [Compound 50] | 30 | 90 | 50 | 100 | 50 | 90 | 60 | 80 | 60 | – | 90 | 95 | – | – | 100 |
| Cc1c(NS(=O)(=O)C(F)(F)F)cc(N2CCC(OC3CC3)C2=O)c(C)c1F (centres unmarked) [Compound 26] | 90 | 100 | 90 | 100 | 60 | 100 | 60 | 70 | 100 | 100 | 30 | 95 | – | – | – |
| Cc1cc(C)c(N(COC(=O)C(C)(C)C)S(=O)(=O)C(F)(F)F)cc1N1CCC(OCC2CC2)C1=O (centres unmarked) [Compound 53] | 60 | 70 | 60 | 100 | 0 | 70 | 40 | 80 | – | – | 40 | 98 | 80 | 90 | – |
| Cc1c(N2CCC(OC3CCC3)C2=O)cc(N(COC(=O)C(C)(C)C)S(=O)(=O)C(F)(F)F)c(C)c1F (centres unmarked) [Compound 28] | 40 | 100 | 30 | 90 | 40 | 40 | 20 | 60 | 90 | 100 | 60 | 95 | – | – | – |
| Cc1cc(C)c(N(COC(=O)C(C)(C)C)S(=O)(=O)C(F)(F)F)cc1N1CCC(OCC2CC(F)(F)C2)C1=O (centres unmarked) [Compound 55] | – | 40 | 20 | 60 | 0 | 60 | 20 | 70 | – | – | 50 | 95 | 80 | 80 | – |
| Cc1cc(C)c(N2CCC(OC3CC3)C2=O)cc1NS(=O)(=O)C(F)(F)F (single isomer, unassigned) [Compound 30] | 100 | 100 | 100 | 100 | 90 | 100 | 70 | 70 | 80 | 100 | 95 | 98 | – | – | – |
